Key:
[1] = target: T1, MGL in rat brain homogenate (Rattus norvegicus, UniProt Q8R431); assay: 2-AG Accumulation Assay (rat brain homogenate); assay type: biochemical; details: compound 1 μM, percent vehicle = 2-AG accumulation with compound / vehicle ×100, read-out: Rat Brain 2AG % VehCntrl (%) @ 1 μM
T1 construct: one g rat brain was homogenized; from tissue; host or cells: rat brain homogenate
T1 sequence (Q8R431 1-303): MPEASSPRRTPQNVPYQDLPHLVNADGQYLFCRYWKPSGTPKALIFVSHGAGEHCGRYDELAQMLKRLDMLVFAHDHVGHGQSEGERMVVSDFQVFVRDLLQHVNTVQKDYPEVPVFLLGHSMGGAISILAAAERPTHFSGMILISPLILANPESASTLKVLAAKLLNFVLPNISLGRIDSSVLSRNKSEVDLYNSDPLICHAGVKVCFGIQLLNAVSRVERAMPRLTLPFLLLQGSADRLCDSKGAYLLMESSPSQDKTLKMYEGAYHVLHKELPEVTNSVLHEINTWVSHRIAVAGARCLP

[2] = tested on: CFA-induced thermal hypersensitivity of the rat hind paw; assay: CFA-Induced Paw Radiant Heat Hypersensitivity; assay type: in vivo; details: 30 mg/kg p.o., HPβCD, group mean values, maximum at any time point up to 180 or 300 min
Method: Each rat was placed in a test chamber on a warm glass surface and allowed to acclimate for approximately 10 min. A radiant thermal stimulus (beam of light) was then focused through the glass onto the plantar surface of each hind paw in turn. The thermal stimulus was automatically shut off by a photoelectric relay when the paw was moved or when the cut-off time was reached (20 sec for radiant heat at ˜5 amps). An initial (baseline) response latency to the thermal stimulus was recorded for each animal prior to the injection of complete Freund's adjuvant (CFA). 24 h following intraplantar CFA injection, the response latency of the animal to the thermal stimulus was then re-evaluated and compared to the animal's baseline response time. […] Post-compound treatment withdrawal latencies were assessed at fixed time intervals, typically 30, 60, 120, 180, and 300 min.
The percent reversal (% R) of hypersensitivity was calculated in one of two different ways: 1) using group mean values or 2) using individual animal values. […]
Method 1. For all compounds, the % R of hypersensitivity was calculated using the mean value for groups of animals at each time point according to the following formula: % reversal=[(group treatment response−group CFA response)/(group baseline response−group CFA response)]×100 Results are given for the maximum % reversal observed for each compound at any time point tested. […]

SMILES | activity at 1 µM [1] [%] | Method 1: peak % reversal [2] [%]
O=C(c1ccc2c(ccn2-c2ncc(C(F)(F)F)cc2Cl)c1)N1CC(N2CCN(C(=O)c3nccs3)CC2)C1 [Cpd 1116] | 828 | –
O=C(c1ccc(-c2cccc(C(F)(F)F)c2)c(Cl)c1)N1CC(N2CCN(C(=O)c3cscn3)CC2)C1 [Cpd 1102] | – | 38
